According to patent publication US12702654B2, “Compositions and methods for treating homocystinuria and other conditions using polyamines” (THE REGENTS OF THE UNIVERSITY OF COLORADO, priority 2020, dated 2026):

Tests used:
Type in all cases: in vivo, mouse
SHMT2 = assay: Western blotting of hepatic SHMT2 expression; conditions: HO mice, 30 g/l in drinking water ad libitum, one week
Protocol: To investigate the effects of these treatments upon the hepatic regulatory changes in enzyme expression induced by HCU, the human transgenic HO mouse model of HCU was used. In brief, experimental groups consisting of 8 HO mice on a C57BL/6J background and 8 C57BL/6J WT littermate control mice bred in house were used. Mice in both groups were male and aged between 3 and 4 months. Except where otherwise stated, all mice were maintained on standard chow. All diets were administered using a paired-feeding design to ensure isocaloric intake between all experimental groups and body weights were measured once per week. There was no significant difference in body weight between mice in any of the experimental groups. Betaine and taurine were in this example, both administered by dissolving these compounds in drinking water at 30 g/l ([…] 3% w/v) and were supplied ad libitum for one week. Treatment water was replenished twice per week.
Western blotting analysis of SAHH, MTHFR and SHMT2 expression was performed in liver samples from HO mice in the presence and absence of betaine or taurine treatment.

HO HCU mice [1] = assay: Hepatic metabolomic analysis / hepatic 5-methylTHF in HO HCU mice
Text: As illustrated in one example, see FIG. 2, HCU (HO) induced a significant accumulation of hepatic 5-methyl-THF which by sequestering one carbon units had the potential to decrease the available pool of THF available to the betaine pathway for lowering Hcy. FIG. 2 illustrates an example of hepatic metabolomic analysis of HO and WT controls compared to an HO mouse treated with betaine. Comparative hepatic metabolomic analysis of HO mice and WT controls illustrated about a 10-fold accumulation in the MTHFR product 5-MeTHF. Betaine treatment alone reduced 5-MeTHF by about 15-25%. Data illustrated in FIG. 2 was derived from the livers of 8 (4 male, 4 female) individual HO or WT or HO Betaine mice per group. Betaine was given at 2% w/v in drinking water given ad libitum. P<0.0001 vs WT.
(§1) A comparative reference data set was generated for these mice by examining plasma levels of tHcy, methionine, cysteine, serine, glycine, dimethylglycine, methylglycine (MG, SAM and SAH). In brief, determination of plasma levels of amino acids relevant to the methionine cycle were determined using methods similar to those described in Stabler et al., Blood. 81 (1993) 3404-3413, incorporated in its entirety herein. Determination of hepatic 5-methylTHF was performed by liquid chromatography-tandem mass spectrometry using methods similar to those described in Witham et al., PLoS One. 8 (2013) e77923, incorporated in its entirety herein. The global metabolomic analysis of methionine and folate cycle related metabolites was carried out by Metabolon, Inc. Briefly, sample preparation was performed utilizing the automated MicroLab STAR® system. Sample preparation was performed using a proprietary series of organic and aqueous extractions to remove the protein fraction while allowing maximum recovery of small molecules. The resulting extract was divided into two fractions: one for analysis by liquid chromatography and one for analysis by gas chromatography. Each sample was then frozen and dried under vacuum. The LC/mass spectrometer portion of the platform was based on a Waters ACQUITY UPLC and a Thermo-Finnigan LTQ mass spectrometer, which consisted of an electrospray ionization source and linear ion-trap mass analyzer. Samples were analyzed on a Thermo-Finnigan Trace DSQ fast-scanning single-quadrupole mass spectrometer using electron impact ionization. Identification of known chemical entities was based on comparison to library entries of authenticated standards. Tissue polyamines putrescine, spermidine and spermine and 5-methylthioadenosine (MTA) were determined by liquid chromatography-tandem mass spectrometry using methods similar to those described in Stevens et al., J Chromatogr A 1217 (2010) 3282-3288, incorporated in its entirety herein.

HO HCU mice [2] = assay: Plasma metabolite levels (tHcy, methionine cycle amino acids, SAM, SAH) in HO HCU mice
Protocol: It is noted that WT mice (n=6) include untreated controls. HO HCU mice (N=8, 4 of each sex in each group) were either untreated or treated with about 3.0% (w/v) glycine w/v or about 3.0% (w/v) serine given in drinking water supplied ad libitum for one week. Plasma samples were taken and Hcy and cysteine levels were determined. *** denotes a P value <0.0001.
In accordance with these methods, HO HCU mice (N=8, 4 of each sex in each group) were treated with either about 3.0% glycine w/v or about 3.0% w/v serine given in drinking water supplied ad libitum for one week in the presence and absence of about 3.0% w/v betaine. Plasma samples were taken from the mice at various times and Hcy levels were determined.
Plasma Hcy levels were determined from HO HCU mice (n=8 per group) in the presence and absence of either about 5.0% w/v sodium formate alone or in combination with about 3.0% betaine given in drinking water given ad libitum.
In one exemplary method, mice were given zinc in drinking water. For this example, 8 HO HCU mice were provided drinking water supplemented with zinc (e.g. 0.05% w/v Zinc sulfate) given ad libitum for one week.
In another exemplary method, the transsulfuration pathway and methionine-folate cycle pathways, as show in the sematic illustrated in FIG. 18A, were assessed. In brief, three experimental groups (n=8 for each group) of male mice consisting of either untreated WT controls or HO HCU mice in the presence or absence of betaine treatment. Betaine was administered by dissolving the compound in drinking water at 30 g/l and was supplied ad libitum to the mice for one week. Treatment water was replenished twice per week.
as §1

HO HCU mice [3] = assay: as above; conditions: long-term betaine treatment, no methionine-restriction
[4] = HO HCU mice, one week of betaine treatment
[5] = HO HCU mice, betaine 30 g/l in drinking water, one week
[6] = HO model, betaine treatment, P<0.0001

C[N+](C)(C)CC(=O)O [betaine, N,N,N-trimethylglycine]
HCU-induced repression of hepatic SHMT2 (SHMT2): completely reversed
HCU-induced decrease in hepatic N-acetylcysteine (HO HCU mice [1]; [4]): reversed
HCU-induced decrease in hepatic cysteine (HO HCU mice [1]; [4]): reversed
hepatic N-acetylserine (HO HCU mice [1]; [4]): Neither of these metabolites were significantly altered
hepatic SAH (HO HCU mice [1]; [4]): did not change significantly
hepatic SAM (HO HCU mice [1]; [4]): did not change significantly
hepatic methionine compared to untreated HO mice (HO HCU mice [1]; [4]): no detectable effect
hepatic serine (HO HCU mice [1]; [4]): Neither of these metabolites were significantly altered
increase of hepatic DMG (HO HCU mice [1]; [4]): 3 to 4 fold
increase of hepatic MG (HO HCU mice [1]; [4]): 3 to 4 fold
lowering of hepatic N-acetlymethionine compared to untreated HO HCU mice (HO HCU mice [1]; [4]): 23%
lowering of hepatic tHcy (HO HCU mice [1]; [4]): approximately 20%
reduction of hepatic 5-MeTHF (HO HCU mice [1]; HO mice, betaine 2% w/v in drinking water ad libitum): 15-25%
increase of plasma Met compared to untreated HCU mice (HO HCU mice [2]; [5]): 3 fold
plasma DMG (HO HCU mice [2]; [5]): strongly increased
plasma MG (HO HCU mice [2]; [5]): strongly increased
plasma SAH (HO HCU mice [2]; [5]): significantly decreased, but not normalized
plasma SAM (HO HCU mice [2]; [5]): significantly decreased, but not normalized
plasma glycine (HO HCU mice [2]; [5]): did not change significantly
plasma serine (HO HCU mice [2]; [5]): did not change significantly
decrease in plasma tHcy (HO HCU mice [2]; HO HCU mice, betaine 30 g/l in drinking water, one week, P<0.0001): ~60%
depletion of plasma total cysteine (HO HCU mice [2]; HO HCU mice, betaine 30 g/l in drinking water, one week, remained lower than WT): significantly ameliorated
decrease in AdoHcy levels (HO HCU mice [2]; [6]): fivefold decrease
plasma DMG (HO HCU mice [2]; [6]): increase
plasma MG (HO HCU mice [2]; [6]): increase
plasma cysteine (HO HCU mice [2]; [6]): increase
plasma methionine (HO HCU mice [2]; [6]): increase
decrease in plasma AdoMet (HO HCU mice [2]; HO model, betaine treatment, P=0.0039): 40%
reduction of Hcy levels by standard treatment alone (HO HCU mice [2]; betaine alone, as previously observed): 15-25%
ability of betaine treatment to lower homocysteine (HO HCU mice [3]): diminished significantly over time
